Assay results from patent publication US20160151337A1, “ANNELATED PYRROLES AND THEIR USE AS CRAC INHIBITORS” (Grünenthal GmbH, priority 2013, published 2016).

Experiments:
CRAC channel = target: T1, CRAC channel (Homo sapiens, UniProt Q96D31); assay: HEK Calcium Influx Assay (FLIPR), inhibition of store-operated Ca2+ entry after thapsigargin store depletion; assay type: cell-based; conditions: 10 μM compound, HEK293 cells, read-out: % inhib. [@ 10 μM] FLIPR
T1 construct: endogenous in cells; host or cells: HEK293 (ECACC), untransfected
Method: The effect of compounds of the invention on intracellular [Ca^2+] was tested in the HEK293 cell line (ECACC).
HEK293 cells were cultured in DMEM/F12/Glutamax (Gibco) containing 10% FCS (Gibco), and maintained at 37° C., 5% CO2. Cell were split twice a week [3*10^6 (Mon-Thu) and 1*10^6 (Thu-Mon) cells/50 ml medium in 1-175 ZK culture flasks, respectively]. Twenty four hours pre-experiment, cells were seeded on 96 well plates (Poly-D-Lysine 96 well Black/Clear Plate, BD Biocoat REF 356640) at a density of 40,000 cells/well in DMEM/F12 (Gibco) containing 10% FCS (Gibco), and maintained at 37° C., 5% CO2.
Prior to store-depletion, cell culture medium was removed and cells were loaded with the Calcium-sensitive fluorescent dye comprised within the Calcium-4-assay kit (Molecular Devices) in nominally Ca^2+-free HBS buffer (140 mM NaCl, 4 mM KCl, 0.2 mM MgCl2, 11 mM D-glucose, and 10 mM HEPES, pH 7.4) according to manufacturer's instruction for 60 min at 37° C., 5% CO2.
Passive depletion of intracellular Ca^2+-stores was then triggered by employing the SERCA inhibitor thapsigargin (2 μM final) for 10 min in the dark (RT). To prevent immediate Ca^2+-entry via the activated store-operated channels (SOCs), cells were maintained in Ca^2+-free HBS buffer comprising 100 μM EGTA during store-depletion.
Intracellular changes in [Ca^2+] were subsequently monitored with the FLIPR device (Molecular Devices). In brief, baseline imaging post-store depletion was allowed for 1 min before adjusting the extracellular buffer to 3 mM CaCl2. Increases in intracellular [Ca^2+] due to pre-activated SOC channels were monitored for 15 min until intracellular Ca^2+ levels had declined into a steady-state. Finally, compounds were administered, and Ca^2+ signals were recorded for additional 10 min.
Inhibition of endogenous SOC in HEK293 cells was quantified employing the average Ca^2+ signal measured from 9.5-10 min post-administration. Zero percent inhibition (MAX) was defined as the Ca^2+ signal recorded from wells to which DMSO-only had been added instead of compound. Hundred percent inhibition (MIN) was defined as the signal obtained from wells in which cells haven't been treated with TG prior to Ca^2+ addition and to which DMSO-only had been added instead of compound. For routine IC50 determinations of compounds, 8 concentrations of a serial dilution (1:3.16) were tested, starting off from 10 μM. Reliable IC50's could consequently be determined only, if they were at least sub 2.5-3 μM.

[1] = tested on: Interleukin-2 (IL-2) production/release in Jurkat T cells; assay: Jurkat IL-2 Production Assay (PHA-stimulated, IL-2 AlphaLisa); assay type: cell-based; conditions: Homo sapiens, PHA 15 μg/ml, 22 h, inhibition of IL-2 production
Method: The effect of compounds of the invention on Interleukin-2 (IL-2) production/release was tested in the Jurkat T cell line (ECACC) clone E6-1.
Jurkat T cells were cultured in DMEM/F12/Glutamax (Gibco) containing 10% FCS (Gibco), and maintained at 37° C., 5% CO2. Cells were split twice a week [5*10^6 (Mon-Thu) and 1*10^7 (Thu-Mon) cells/50 ml medium in 1-175 ZK culture flasks, respectively].
Prior to experiment, cells were seeded on 96 well plates (Cellstar 96 Well; Cat No. 655180, Greiner bio-one) at a density of 5*10^5 cells/well in DMEM/F12/Glutamax (Gibco) containing 10% FCS (Gibco), and incubated for 60 min at 37° C., 5% CO2. Subsequently, compounds were added and cells were allowed to incubate for 30 min at 37° C., 5% CO2. Cells were then stimulated with 15 μg/ml Phyto-hemagglutinin (PHA; Sigma) for 22 hours at 37° C., 5% CO2.
Before sampling of the supernatants, cells were spun down (200*g/5 min/RT). The amount of IL-2 released into the supernatant was quantified with the human IL-2 AlphaLisa kit (Perkin Elmer) according to manufacturer's instructions. Luminescence proximity measurements were carried out in the Synergy H4 reader (BioTek) employing the fluorescence setting of the reader (ex: 680/30 nm; em: 620/40 nm).
Inhibition of IL-2 production/release in/from Jurkat T cells was quantified as follows: Zero percent inhibition (MAX) was defined as the [IL-2] determined in supernatants derived from cells to which PHA & DMSO-only had been added instead of compound. Hundred percent inhibition (MIN) was defined as the [IL-2] determined in supernatants derived from cells that had been pre-treated with 1 μM CyclosporineA (Sigma) before the addition of 15 μg/ml PHA.
For routine IC50 determinations of compounds, 8 concentrations of a serial dilution (1:3.16) were tested, starting off from 10 μM.

T1 sequence (Q96D31 whole entry): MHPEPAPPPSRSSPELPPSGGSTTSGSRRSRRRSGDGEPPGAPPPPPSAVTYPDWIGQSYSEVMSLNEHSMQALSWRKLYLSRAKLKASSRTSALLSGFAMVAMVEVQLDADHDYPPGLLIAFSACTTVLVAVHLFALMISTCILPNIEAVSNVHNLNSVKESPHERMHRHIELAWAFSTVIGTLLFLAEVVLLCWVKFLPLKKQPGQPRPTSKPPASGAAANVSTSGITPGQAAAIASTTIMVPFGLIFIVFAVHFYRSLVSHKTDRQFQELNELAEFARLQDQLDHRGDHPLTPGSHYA

Row | SMILES | inhibition at 10 µM (CRAC channel) [%] | IC50 [1] [µM]
1 | Cc1cc(Cl)ccc1N1CCc2[nH]c(-c3c(F)cccc3F)cc2C1 [Example 11, 5-(4-Chloro-2-methyl-phenyl)-2-(2,6-difluoro-phenyl)-4,5,6,7-tetrahydro-1H-pyrrolo[3,2-c]pyridine] | < 50 | 0.5 to 1
2 | Cc1nc(C#N)ccc1N1CCc2[nH]c(-c3c(F)cccc3F)cc2C1 [Example 77, 5-[2-(2,6-Difluoro-phenyl)-4,5,6,7-tetrahydro-1H-pyrrolo[3,2-c]pyridin-5-yl]-6-methyl-pyridine-2-carbonitrile] | > 70 | 1 to 5
3 | COC1(c2cc(N3CCc4[nH]c(-c5c(F)cccc5F)cc4C3)n(C)n2)CC1 [Example 137, 2-(2,6-Difluoro-phenyl)-5-[5-(1-methoxy-cyclopropyl)-2-methyl-2H-pyrazol-3-yl]-4,5,6,7-tetrahydro-1H-pyrrolo[3,2-c]pyridine] | > 70 | 1 to 5
4 | CNS(=O)(=O)c1ccc(N2CCc3[nH]c(-c4cnc(C)cc4C)cc3C2)c(C)c1 [Example 127, 4-[2-(4,6-Dimethyl-pyridin-3-yl)-4,5,6,7-tetrahydro-1H-pyrrolo[3,2-c]pyridin-5-yl]-N,3-dimethyl-benzenesulfonic acid amide] | > 70 | 1 to 5
5 | COc1cc2c(cc1N1CCc3[nH]c(C4CCCCC4)cc3C1)CCS2(=O)=O [Example 103, 5-(2-Cyclohexyl-4,5,6,7-tetrahydro-1H-pyrrolo[3,2-c]pyridin-5-yl)-6-methoxy-2,3-dihydro-benzo[b]thiophene 1,1-dioxide] | < 50 | < 0.5
6 | Cc1cc(S(C)(=O)=O)ncc1N1CCc2[nH]c(-c3c(F)cccc3F)c(Br)c2C1 [Example 91, 3-Bromo-2-(2,6-difluoro-phenyl)-5-(4-methyl-6-methylsulfonyl-pyridin-3-yl)-4,5,6,7-tetrahydro-1H-pyrrolo[3,2-c]pyridine] | 50 to 70 | 1 to 5
7 | Cc1nc(N2CCc3[nH]c(-c4c(F)cccc4F)cc3C2)ccc1Br [Example 25, 5-(5-Bromo-6-methyl-pyridin-2-yl)-2-(2,6-difluoro-phenyl)-4,5,6,7-tetrahydro-1H-pyrrolo[3,2-c]pyridine] | < 50 | 1 to 5
8 | Cn1nc(C2(C(F)(F)F)CC2)cc1N1CCc2[nH]c(-c3c(F)cccc3F)cc2C1 [Example 123, 2-(2,6-Difluoro-phenyl)-5-[2-methyl-5-[1-(trifluoromethyl)-cyclopropyl]-2H-pyrazol-3-yl]-4,5,6,7-tetrahydro-1H-pyrrolo[3,2-c]pyridine] | > 70 | 0.5 to 1
9 | Cc1sc(-c2ccccc2)nc1N1CCc2[nH]c(-c3c(F)cccc3F)cc2C1 [Example 23, 4-[2-(2,6-Difluoro-phenyl)-4,5,6,7-tetrahydro-1H-pyrrolo[3,2-c]pyridin-5-yl]-5-methyl-2-phenyl-thaizole] | < 50 | 1 to 5
10 | CCn1nc(C2(C(F)(F)F)CC2)cc1N1CCc2[nH]c(-c3c(F)cccc3F)cc2C1 [Example 124, 2-(2,6-Difluoro-phenyl)-5-[2-ethyl-5-[1-(trifluoromethyl)-cyclopropyl]-2H-pyrazol-3-yl]-4,5,6,7-tetrahydro-1H-pyrrolo[3,2-c]pyridine] | < 50 | < 0.5
11 | CCOc1cc(C(F)(F)F)ncc1N1CCc2[nH]c(-c3c(F)cccc3F)cc2C1 [Example 116, 2-(2,6-Difluoro-phenyl)-5-[4-ethoxy-6-(trifluoromethyl)-pyridin-3-yl]-4,5,6,7-tetrahydro-1H-pyrrolo[3,2-c]pyridine] | > 70 | < 0.5
12 | Fc1cccc(F)c1-c1cc2c([nH]1)CCN(c1cnc(C(F)(F)F)cc1C1CC1)C2 [Example 113, 5-[4-Cyclopropyl-6-(trifluoromethyl)-pyridin-3-yl]-2-(2,6-difluoro-phenyl)-4,5,6,7-tetrahydro-1H-pyrrolo[3,2-c]pyridine] | < 50 | < 0.5
13 | CCc1sc(-c2cccnc2)nc1N1CCc2[nH]c(-c3c(F)cccc3F)cc2C1 [Example 31, 4-[2-(2,6-Difluoro-phenyl)-4,5,6,7-tetrahydro-1H-pyrrolo[3,2-c]pyridin-5-yl]-5-ethyl-2-pyridin-3-yl-thiazole] | < 50 | < 0.5
14 | CCn1nc(C2CC2)cc1N1CCc2[nH]c(-c3c(F)cccc3F)cc2C1 [Example 126, 5-(5-Cyclopropyl-2-ethyl-2H-pyrazol-3-yl)-2-(2,6-difluoro-phenyl)-4,5,6,7-tetrahydro-1H-pyrrolo[3,2-c]pyridine] | > 70 | 0.5 to 1
15 | CCCCc1cc2c([nH]1)CCN(c1cnc(S(C)(=O)=O)cc1C)C2 [Example 74, 2-Butyl-5-(4-methyl-6-methylsulfonyl-pyridin-3-yl)-4,5,6,7-tetrahydro-1H-pyrrolo[3,2-c]pyridine] | > 70 | 1 to 5
16 | COC(=O)c1ccc(N2CCc3[nH]c(-c4c(F)cccc4F)cc3C2)c(C)c1 [Example 13, 4-[2-(2,6-Difluoro-phenyl)-4,5,6,7-tetrahydro-1H-pyrrolo[3,2-c]pyridin-5-yl]-3-methyl-benzoic acid methyl ester] | < 50 | 0.5 to 1
17 | COCc1ccc(N2CCc3[nH]c(-c4c(F)cccc4F)cc3C2)c(C)c1 [Example 105, 2-(2,6-Difluoro-phenyl)-5-[4-(methoxymethyl)-2-methyl-phenyl]-4,5,6,7-tetrahydro-1H-pyrrolo[3,2-c]pyridine] | > 70 | 0.5 to 1
18 | Cc1cc(S(=O)(=O)N2CCC2)ccc1N1CCc2[nH]c(-c3c(F)cccc3F)cc2C1 [Example 109, 5-[4-(Azetidin-1-ylsulfonyl)-2-methyl-phenyl]-2-(2,6-difluoro-phenyl)-4,5,6,7-tetrahydro-1H-pyrrolo[3,2-c]pyridine] | < 50 | < 0.5
19 | Cc1cc(S(C)(=O)=O)ncc1N1CCc2[nH]c(-c3ccncc3Cl)cc2C1 [Example 108, 2-(3-Chloro-pyridin-4-yl)-5-(4-methyl-6-methylsulfonyl-pyridin-3-yl)-4,5,6,7-tetrahydro-1H-pyrrolo[3,2-c]pyridine] | < 50 | 0.5 to 1
20 | Cc1cc(S(C)(=O)=O)ncc1N1CCc2[nH]c(C3CCCCC3)cc2C1 [Example 72, 2-Cyclohexyl-5-(4-methyl-6-methylsulfonyl-pyridin-3-yl)-4,5,6,7-tetrahydro-1H-pyrrolo[3,2-c]pyridine] | > 70 | < 0.5
21 | Cc1cc(C(F)(F)F)ncc1N1CCc2[nH]c(-c3c(F)cccc3F)cc2C1 [Example 73, 2-(2,6-Difluoro-phenyl)-5-[4-methyl-6-(trifluoromethyl)-pyridin-3-yl]-4,5,6,7-tetrahydro-1H-pyrrolo[3,2-c]pyridine] | > 70 | < 0.5
